# Measurements as given in patent publication US6777418B2, “Retinoid compounds (I)” (Syntex (U.S.A.) LLC, priority 2000, dated 2004).
# Several values for one entry are separate records, joined by “and”; a condition that tells them apart may be missing. Equal entries are not always repeated.
row,melting point,Structure (SMILES)
1,238.3 to 241.5 °C and 238.5 to 241.5 °C,"CC1(C)c2cc(/C=C/c3ccc(C(=O)O)cc3)c(Cn3cccn3)cc2C(C)(C)[C@@H](O)[C@H]1O (stereo in doubt) [Compound 148, 4-[(E)-2-(5,5,8,8-tetramethyl-3-pyrazol-1-ylmethyl-6,7-cis-dihydroxy-5,6,7,8-tetrahydro-naphthalen-2-yl)vinyl]-benzoic acid]"
2,209.4 to 211.3 °C,CC1(C)CCC(C)(C)c2cc(CSC3CCCC3)c(/C=C/c3ccc(C(=O)O)cc3)cc21 [Compound 4]
3,55.9 to 58.2 °C,COCCOCc1cc2c(cc1/C=C/c1ccc(C(=O)O)cc1)C(C)(C)CCC2(C)C [Compound 5]
4,169.4 to 173.3 °C,"CCOCCCc1cc2c(cc1/C=C/c1ccc(C(=O)O)cc1)C(C)(C)CCC2(C)C [Compound 10, 4-{(E)-2-[3-(3-ethoxypropyl)-5,8,8-tetramethyl-5,6,7,8-tetrahydro-naphthalen-2-yl]vinyl}benzoic acid]"
5,208.6 to 210.8 °C,CC(C)SCc1cc2c(cc1/C=C/c1ccc(C(=O)O)cc1)C(C)(C)CCC2(C)C [Compound 13]
6,218.1 to 218.5 °C,Cc1nnc(SCc2cc3c(cc2/C=C/c2ccc(C(=O)O)cc2)C(C)(C)CCC3(C)C)s1 [Compound 23]
7,244.7 to 245.2 °C,"Cc1nnc(SCCc2cc3c(cc2/C=C/c2ccc(C(=O)O)cc2)C(C)(C)CCC3(C)C)s1 [Compound 27, 4-((E)-2-{5,5,8,8-tetramethyl-3-[3-(5-methyl-[1,3,4]thiadizol-2ylsulfanyl)-ethyl]-5,6,7,8-tetrahydro-naphthalen-2-yl}vinyl)benzoic acid]"
8,144 to 145.3 °C,"Cc1nnc(SCCCc2cc3c(cc2/C=C/c2ccc(C(=O)O)cc2)C(C)(C)CCC3(C)C)s1 [Compound 28, 4-((E)-2-{5,5,8,8-Tetramethyl-3-[3-(5-methyl-[1,3,4]thiadiazol-2-ylsulfanyl)-propyl]-5,6,7,8-tetrahydro-naphthalen-2-yl}vinyl)benzoic acid]"
9,228 to 228.9 °C,CC1(C)CCC(C)(C)c2cc(CCc3ncccn3)c(/C=C/c3ccc(C(=O)O)cc3)cc21 [Compound 41]

# Continued, molecule first:
row,Structure (SMILES),melting point
1,CC1(C)CCC(C)(C)c2cc(-c3ccsc3)c(/C=C/c3ccc(C(=O)O)cc3)cc21,244.5 to 245.8 °C
2,CC1(C)CCC(C)(C)c2cc(-c3cccs3)c(/C=C/c3ccc(C(=O)O)cc3)cc21,242.5 to 243.6 °C
3,CC1(C)CCC(C)(C)c2cc(CSCC(O)CO)c(/C=C/c3ccc(C(=O)O)cc3)cc21 (centres unmarked) [Compound 9],174.8 to 175.9 °C
4,"CC1(C)CCC(C)(C)c2cc(CCCO)c(/C=C/c3ccc(C(=O)O)cc3)cc21 [Compound 12, 4-{(E)-2-[3-(3-hydroxypropyl)-5,5,8,8-tetramethyl-5,6,7,8-tetrahydro-naphthalen-2-yl]vinyl}benzoic acid]",212.8 to 213.2 °C
5,Cn1cnnc1SCc1cc2c(cc1/C=C/c1ccc(C(=O)O)cc1)C(C)(C)CCC2(C)C [Compound 22],251.6 to 252.6 °C
6,"CC1(C)CCC(C)(C)c2cc(CCn3cccn3)c(/C=C/c3ccc(C(=O)O)cc3)cc21 [Compound 29, 4-{(E)-2-[5,5,8,8-tetramethyl-3-(2-pyrazol-1-ylethyl)-5,6,7,8-tetrahydro-naphthalen-2-yl]vinyl}benzoic acid]",235.3 to 235.9 °C
7,"CC1(C)CCC(C)(C)c2cc(CCCn3cccn3)c(/C=C/c3ccc(C(=O)O)cc3)cc21 [Compound 30, 4-{(E)-2-[5,5,8,8-tetramethyl-3-(3-pyrazol-1-ylpropyl)-5,6,7,8-tetrahydro-naphthalen-2-yl]vinyl}benzoic acid]",181.5 to 182.5 °C
8,"CC1(C)CCC(C)(C)c2cc(CCc3nccs3)c(/C=C/c3ccc(C(=O)O)cc3)cc21 [Compound 40, 4-{(E)-2-[5,5,8,8-tetramethyl-3-(2-thiazol-2-yl-ethyl)-5,6,7,8-tetrahydro-naphthalen-2-yl)vinyl]benzoic acid]",215.8 to 217.5 °C
